One molecule from patent US8609836B2, “4-aryl-2-anilino-pyrimidines” (Janssen Pharmaceutica NV, priority 2008, dated 2013) can be followed below.

For one test, the system named is A2780. The test can be described thus: Cellular proliferation assay (Alamar blue), A2780. Particulars: Homo sapiens, 10% FCS, 72 hours with compound, Alamar blue 24 h, read-out: A2780 (cellular proliferation assay, Table 4) (converted). In kind it is cell-based. In outline: (§1)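 Proliferation in 10% FCS over a 72 h compound treatment, read as viable cell number by Alamar blue fluorescence and calculated against untreated control cells. Dye time varied by line: 6 h U87-MG, 4 h HCT-116, 24 h A2780 and MDA-MB-231.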
In general terms: Resazurin is reduced to fluorescent resorufin, in cell work by metabolically active cells.

The next test deals with HCT-116. Put plainly: Cellular proliferation assay (Alamar blue), HCT-116. In kind it is cell-based. Particulars: Homo sapiens, 10% FCS, 72 hours with compound, Alamar blue 4 h. In outline: as §1
A further test concerns the target AuroraB (h) (Homo sapiens, UniProt Q96GD4). The test can be described thus: Aurora-B human kinase inhibition, SPA. In kind it is biochemical. Particulars: read-out: AuroraB pIC50 (converted). In outline: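 SPA with biotinylated peptide (3 μM) in 60 mM Hepes pH 7.5, Mg/Mn 3 mM each, 0.5 μM ATP plus [γ-33P]ATP, AuroraB at 0.5 μg/ml. The reaction runs 60 min at room temperature and is stopped with EDTA and streptavidin PVT beads. 33P-substrate is read by scintillation imaging.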

The next test concerns U87-MG. The test can be described thus: Cellular proliferation assay (Alamar blue), U87-MG. In kind it is cell-based. The following applies: Homo sapiens, U-87 MG; 10% FCS; 72 hours with compound; Alamar blue 6 h; read-out: U87-MG (cellular proliferation assay, Table 4) (converted). In outline:
as §1

A further test relates to H1299. Put plainly: Cellular proliferation assay (Alamar blue), H1299. In kind it is cell-based. Particulars: Homo sapiens, NCI-H1299; 10% FCS; 72 hours with compound; Alamar blue 4 h. The gist of the method: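 This proliferation assay on NCI-H1299 cells used an initial 24-hour compound-free incubation after seeding, followed by 72 hours of compound treatment with 10% FCS serum at 37° C. and 5% (v/v) CO2. Viable cells were quantified by a 4 h Alamar blue incubation and fluorescent plate reading at 544 nm/590 nm, and effects were expressed relative to control cells.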

Another test concerns the target PLK3 (h) (Homo sapiens, UniProt Q9H4B4). The test can be described thus: PLK3 human kinase inhibition, SPA. In kind it is biochemical. Particulars: read-out: PLK3 pIC50 (converted). In outline: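 SPA: PLK3 (h) at 30 μg/ml with 2 μM biotinylated peptide, 0.1 μM ATP plus 2 nM [γ-33P]ATP in 50 mM Hepes pH 8.0, 2 mM MnCl2 and 1 mM DTT. Incubated 20 min at room temperature, then stopped with EDTA and streptavidin PVT beads. Scintillation imaged on Leadseeker.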

The target in the next test is PLK4 (h) (Homo sapiens, UniProt O00444). Put plainly: PLK-4 human kinase inhibition, scintillation proximity assay (SPA). In kind it is biochemical. Particulars: read-out: PLK4 pIC50 (converted). On the technique in general: In a scintillation proximity assay essentially only radioactivity close to the scintillant gives light.
PLK4 (h), sequence (O00444 whole entry): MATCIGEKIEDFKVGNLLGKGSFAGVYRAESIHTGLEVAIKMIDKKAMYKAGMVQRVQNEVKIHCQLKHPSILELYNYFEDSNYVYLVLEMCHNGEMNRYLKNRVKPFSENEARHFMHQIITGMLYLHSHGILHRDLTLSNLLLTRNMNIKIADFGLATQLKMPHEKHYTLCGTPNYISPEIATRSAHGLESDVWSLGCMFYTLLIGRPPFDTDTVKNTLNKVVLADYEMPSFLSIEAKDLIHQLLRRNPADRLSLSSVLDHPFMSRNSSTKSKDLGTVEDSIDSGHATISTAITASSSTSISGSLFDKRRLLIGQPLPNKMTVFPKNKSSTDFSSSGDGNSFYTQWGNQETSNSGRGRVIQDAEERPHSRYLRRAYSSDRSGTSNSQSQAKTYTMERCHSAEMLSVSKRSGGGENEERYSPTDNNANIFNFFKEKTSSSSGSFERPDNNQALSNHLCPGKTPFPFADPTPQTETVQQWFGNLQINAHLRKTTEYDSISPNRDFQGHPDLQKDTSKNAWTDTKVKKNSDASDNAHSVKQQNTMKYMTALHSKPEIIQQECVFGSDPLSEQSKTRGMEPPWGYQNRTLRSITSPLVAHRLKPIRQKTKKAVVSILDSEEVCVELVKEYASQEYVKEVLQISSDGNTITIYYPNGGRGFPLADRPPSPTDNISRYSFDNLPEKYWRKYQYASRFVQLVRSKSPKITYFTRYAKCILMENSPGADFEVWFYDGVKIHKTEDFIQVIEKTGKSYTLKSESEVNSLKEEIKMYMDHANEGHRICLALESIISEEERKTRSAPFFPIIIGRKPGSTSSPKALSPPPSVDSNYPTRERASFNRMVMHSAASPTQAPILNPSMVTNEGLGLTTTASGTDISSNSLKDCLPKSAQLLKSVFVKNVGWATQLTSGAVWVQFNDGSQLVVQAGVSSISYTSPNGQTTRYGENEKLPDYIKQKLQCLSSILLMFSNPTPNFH
Another test has as its target GSK3β (h) (Homo sapiens, UniProt P49841). The test can be described thus: GSK-3β human kinase inhibition, SPA. In kind it is biochemical. The following applies: read-out: GSK3b pIC50 (converted). The gist of the method: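 Scintillation proximity assay: GSK3β (1 μg/ml) with 1 μM biotinylated peptide, 1 μM ATP plus [γ-33P]ATP in Tris pH 7.4, MgCl2, DTT. 60 min at room temperature, stopped with EDTA and streptavidin PVT beads; phosphorylation read by Leadseeker imaging.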

The next test deals with CDK1/CyclinB (h) (Homo sapiens, UniProt P06493). Put plainly: CDK1/CyclinB human kinase inhibition, Invitrogen's FRET assay (Z'lyte). In kind it is biochemical. Particulars: read-out: CDK1 pIC50 (converted). The gist of the method: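 Z'lyte FRET assay: human CDK1/CyclinB (0.2 μg/ml) with 2 μM Ser/Thr peptide 12 and 10 μM ATP in 50 mM Hepes pH 7.5, MgCl2, EGTA, Brij-35, 60 min at room temperature. Protease development 60 min, then emission ratio 460/538 nm read with excitation at 390 nm.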
CDK1/CyclinB (h), sequence (P06493 whole entry): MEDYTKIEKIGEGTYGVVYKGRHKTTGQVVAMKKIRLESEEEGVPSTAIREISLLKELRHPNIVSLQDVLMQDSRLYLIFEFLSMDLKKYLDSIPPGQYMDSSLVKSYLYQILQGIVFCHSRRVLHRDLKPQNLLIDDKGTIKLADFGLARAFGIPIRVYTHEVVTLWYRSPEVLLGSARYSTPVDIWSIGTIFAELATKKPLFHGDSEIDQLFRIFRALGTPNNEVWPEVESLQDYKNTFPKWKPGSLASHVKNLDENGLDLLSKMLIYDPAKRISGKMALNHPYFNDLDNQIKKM
CDK1/CyclinB (h), sequence (P14635 whole entry partner): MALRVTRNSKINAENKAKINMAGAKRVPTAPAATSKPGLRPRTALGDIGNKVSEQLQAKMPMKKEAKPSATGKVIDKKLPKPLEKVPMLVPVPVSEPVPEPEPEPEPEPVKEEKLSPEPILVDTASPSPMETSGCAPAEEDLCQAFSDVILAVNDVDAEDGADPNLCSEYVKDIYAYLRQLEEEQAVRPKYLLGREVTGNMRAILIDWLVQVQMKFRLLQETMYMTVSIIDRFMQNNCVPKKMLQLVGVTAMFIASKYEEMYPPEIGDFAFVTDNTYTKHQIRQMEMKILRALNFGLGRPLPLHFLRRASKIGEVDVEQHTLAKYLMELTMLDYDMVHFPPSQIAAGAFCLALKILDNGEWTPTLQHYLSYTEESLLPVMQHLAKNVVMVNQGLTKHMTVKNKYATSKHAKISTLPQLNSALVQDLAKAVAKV

Each structure is given as a SMILES string. Where only a bound is given, the exact number is not on record here.

PLK3 (h), sequence (Q9H4B4 whole entry): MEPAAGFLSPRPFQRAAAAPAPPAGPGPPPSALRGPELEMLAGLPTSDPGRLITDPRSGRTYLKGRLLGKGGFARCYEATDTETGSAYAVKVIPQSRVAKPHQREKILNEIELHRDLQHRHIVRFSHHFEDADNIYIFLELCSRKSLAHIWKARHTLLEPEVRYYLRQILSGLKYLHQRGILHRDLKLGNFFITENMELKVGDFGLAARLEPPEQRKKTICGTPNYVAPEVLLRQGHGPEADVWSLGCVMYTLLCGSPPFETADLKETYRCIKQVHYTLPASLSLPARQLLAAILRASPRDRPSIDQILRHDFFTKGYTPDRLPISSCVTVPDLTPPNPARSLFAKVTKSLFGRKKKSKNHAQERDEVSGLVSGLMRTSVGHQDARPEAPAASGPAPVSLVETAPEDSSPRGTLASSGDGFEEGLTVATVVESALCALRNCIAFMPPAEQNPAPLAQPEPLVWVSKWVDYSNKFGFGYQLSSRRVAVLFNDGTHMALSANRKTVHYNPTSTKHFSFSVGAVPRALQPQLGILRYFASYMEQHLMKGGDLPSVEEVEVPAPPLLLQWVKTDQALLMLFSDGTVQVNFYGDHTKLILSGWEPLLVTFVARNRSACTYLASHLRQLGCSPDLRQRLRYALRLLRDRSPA
AuroraB (h), sequence (Q96GD4 whole entry): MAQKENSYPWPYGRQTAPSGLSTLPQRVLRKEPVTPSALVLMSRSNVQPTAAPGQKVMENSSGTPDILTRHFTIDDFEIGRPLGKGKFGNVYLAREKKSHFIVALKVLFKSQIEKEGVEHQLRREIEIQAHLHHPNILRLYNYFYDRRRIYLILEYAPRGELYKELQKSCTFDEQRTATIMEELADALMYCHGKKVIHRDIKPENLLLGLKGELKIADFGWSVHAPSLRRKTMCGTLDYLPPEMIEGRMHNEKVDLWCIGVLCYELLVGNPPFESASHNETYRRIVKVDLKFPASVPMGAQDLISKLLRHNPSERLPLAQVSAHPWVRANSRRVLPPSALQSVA
GSK3β (h), sequence (P49841 whole entry): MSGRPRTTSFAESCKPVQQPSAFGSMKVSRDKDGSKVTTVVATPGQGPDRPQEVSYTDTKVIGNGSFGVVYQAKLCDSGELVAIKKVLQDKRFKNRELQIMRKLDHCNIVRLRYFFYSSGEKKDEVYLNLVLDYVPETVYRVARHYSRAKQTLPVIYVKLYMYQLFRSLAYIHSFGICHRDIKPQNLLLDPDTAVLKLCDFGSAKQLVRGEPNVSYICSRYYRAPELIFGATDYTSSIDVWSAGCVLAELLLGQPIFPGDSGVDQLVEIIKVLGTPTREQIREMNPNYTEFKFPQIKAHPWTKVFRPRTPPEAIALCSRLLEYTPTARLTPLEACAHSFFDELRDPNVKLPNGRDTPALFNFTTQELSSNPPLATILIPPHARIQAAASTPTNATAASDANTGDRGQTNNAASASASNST

`COc1ccc2cc1CN(C)CCCNC(=O)CN1CCN(CC1)Cc1cc(cc(N3CCOCC3)c1)Nc1nccc-2n1` [Compound 141]: the IC50 in the test with A2780 was 8.91 µM; with HCT-116, 2.29 µM; on AuroraB (h) it was above 10 µM; in the test on U87-MG, 5.89 µM; in the test on H1299 it was above 10 µM; at PLK3 (h) it was above 10 µM. For the same molecule, the results for the IC50 at PLK4 (h), on GSK3β (h) and on CDK1/CyclinB (h) were 3.02 µM, above 10 µM and above 10 µM, respectively.
